Three compounds from PubChem BioAssay (NCI) can be followed below.

Some test systems named below: SN12K1 renal; P388 leukemia; DLD-1 colon; DMS 273 small cell lung; DMS 114 small cell lung; P388/ADR leukemia; SNB-78 CNS; HOP-18 NSCLC; LOX IMVI melanoma; XF 498 CNS; M19-MEL melanoma; KM20L2 colon; RXF-631 renal; LXFL 529 NSCLC.
Common to all, as to experiment: NCI tumour cell line growth inhibition, 48 h

SMILES strings stand for the structures.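 Values below derive from 48-hour exposures of cells grown in 96-well plates, with endpoints linearly interpolated between the two concentrations bracketing the appropriate inhibition level. The concentration for full growth arrest is given as TGI.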

On to `O=C1c2ccccc2C(O)(C(=O)O)C1(O)CC=C(Cl)Cl` (configuration not stated), for which the TGI with SN12K1 renal is > 125 µM; in the test on P388 leukemia it was > 125 µM; in the test on DLD-1 colon, > 125 µM; in the test with DMS 273 small cell lung it was > 125 µM; with DMS 114 small cell lung, > 125 µM; in the test with P388/ADR leukemia it was > 70.3 µM. Moreover, the TGI in the test with SNB-78 CNS, in the test on HOP-18 NSCLC, with LOX IMVI melanoma, with XF 498 CNS, in the test with M19-MEL melanoma and in the test on KM20L2 colon was > 125 µM in each case.
As to `COc1cc2c[n+](C)c3c4cc5c(cc4ccc3c2cc1OC)OCO5`, the TGI is > 100 µM in the test on RXF-631 renal; > 31.6 µM with DLD-1 colon; 11.6 µM in the test with DMS 273 small cell lung; 5.92 µM with DMS 114 small cell lung; > 25.9 µM with SNB-78 CNS; 93.6 µM in the test on HOP-18 NSCLC. In addition, the TGI in the test on LOX IMVI melanoma was determined as 24.8 µM; in the test on XF 498 CNS, 9.95 µM; in the test with M19-MEL melanoma, 2.9 µM; in the test with KM20L2 colon it was 3.47 µM; in the test on LXFL 529 NSCLC, 4.67 µM.
Regarding `COC(=O)C(C)NP(=O)(N1CC1)N1CC1` (configuration not stated), the TGI in the test on RXF-631 renal, in the test with DLD-1 colon, in the test on DMS 273 small cell lung, in the test on DMS 114 small cell lung, in the test on SNB-78 CNS and in the test on LOX IMVI melanoma was > 100 µM in each case. In addition, the TGI with XF 498 CNS, with KM20L2 colon and in the test on LXFL 529 NSCLC was > 100 µM throughout.
